This note sets out measurements from patent publication US10894038B2, “Indolizine derivatives, composition and methods of use” (Shanghai Fochon Pharmaceutical Co., Ltd., priority 2015, dated 2021).

One assay addresses URAT1 (Homo sapiens (Human), UniProt Q96S37). In words: URAT1 in vitro inhibition activity, Method B (14C-uric acid uptake in HEK293-URAT1 cells). The format is cell-based. Conditions: 5.0 μmol/L 14C-uric acid, 2 min uptake. As for the experimental part: HEK293-URAT1 cell Lines were donated by Japan Fuji Biomedical Research Institute. Negative control cell of HEK293 (MOCK cells) which was transfected with pcDNA3.1 empty vector. HEK293-URAT1 cell lines and MOCK cell lines were cultured in complete growth medium consisting of DMEM supplemented with 10% FBS, penicillin and streptomycin.
Preparation of working solution: Each stock solutions was diluted to different concentrations (6, 20, 60, 200 and 600 μmol/L) with DMSO as 200× working solution, which was then diluted to 2×compound working solution with HBSS (Cl^− free) buffer. Radiolabeled substrate ^14C-Uric acid solution was diluted with HBSS (Cl^− free) buffer to obtain 2× working solution which was mixed with an equal volume of 2× compound working solution to obtain the mixture of radiolabeled substrate and compound working solution.
HER293-URAT1 and MOCK cells were seeded onto 24-well plates at the density of 1.5×10^6 cells per well. The cells were incubated at 37° C., 5% CO2 overnight. After cultured for approximately 2 to 3 days, cells were used for the experiments. The culture medium were removed from the wells, and cells were washed with HBSS (Cl^− free) and incubated in 37° C. HBSS (Cl^− free) for 10 min. HBSS was replaced with 500 μL of the mixture of radiolabeled substrate and compound working solution. The final concentration of ^14C-Uric acid in the assay was 5.0 μmol/L. Plates were incubated at 37° C., 5% CO2 for 2 min, and the reaction was stopped by the addition of pre-chilled HBSS (Cl^− free) by washing three times. 400 μL NaOH ([…]) was added to lyse the cells and the cell lysate was collected to scintillation vials, and 3 ml scintillant (Aquasol-2, PerkinElmer) was added and after mixing completely, the radioactivity was counted by Tri-Carb 2910TR liquid scintillation counter. Each concentration of compounds, positive control and negative control were repeated in two wells (n=2). Inhibition % data were calculated using the formula: Inhibition=[100×(U−U0)/(Uc−U0)]%, and analyzed using Prism5 software.
U0: Average of signals of MOCK cells;
Uc: Average of signals of radiolabeled substrate. The half inhibition concentration of the tested compounds to URAT1 were analyzed using Prism 5 software.

Assay [1] has as its system potassium oxonate-induced hyperuricemia in rats. Description: Effect on potassium oxonate-induced hyperuricemia in rats (serum uric acid). Conditions: male SD rats, 5 mg/kg oral; for serum uric acid levels, time after dosing 0.5 h: 0.5 h after dosing; for serum uric acid levels, time after dosing 1 h: 1 h after dosing; for serum uric acid levels, time after dosing 2 h: 2 h after dosing; for serum uric acid levels, time after dosing 3 h: 3 h after dosing; for serum uric acid levels, time after dosing 4 h: 4 h after dosing. In kind it is in vivo, rat. As for the experimental part:
Healthy male SD rats, weighing 250±20 g, were used. In the experiment, except for 10 rats as normal control group were orally administered with distilled water, the others were orally administered with yeast extract (20 g/kg, qd×5 days). One hour after last administration, all the rats were intraperitoneal injection with 250 mg/kg potassium oxonate while normal control group was treated with an equal volume of 0.5% CMC-Na (injection volume of 2 ml/kg). After one hour, rats were anesthetized with isoflurane and the serum uric acid was determined by uric acid test strip. All the rats were divided into groups by uric acid. The model control group and experimental groups was given orally administration 0.5% CMC-Na or compounds with a dose of 10 ml/kg-bw. Phosphotungstic acid precipitation method was used to detect serum uric acids in inner canthus blood at 0.5, 1, 2, 3, 4 h after administration, respectively. Substantially, observing the effects of compounds on serum uric acids levels and calculating each of groups' AUC and the inhibition of uric acid increased area by the equation as follows: […]
As shown in the equation, AUC0 indicated the AUC of model control group, AUC1 indicated the AUC of therapy group, AUC2 indicated the AUC of normal control group.

Sequence of URAT1 (Q96S37 whole entry, species assumed): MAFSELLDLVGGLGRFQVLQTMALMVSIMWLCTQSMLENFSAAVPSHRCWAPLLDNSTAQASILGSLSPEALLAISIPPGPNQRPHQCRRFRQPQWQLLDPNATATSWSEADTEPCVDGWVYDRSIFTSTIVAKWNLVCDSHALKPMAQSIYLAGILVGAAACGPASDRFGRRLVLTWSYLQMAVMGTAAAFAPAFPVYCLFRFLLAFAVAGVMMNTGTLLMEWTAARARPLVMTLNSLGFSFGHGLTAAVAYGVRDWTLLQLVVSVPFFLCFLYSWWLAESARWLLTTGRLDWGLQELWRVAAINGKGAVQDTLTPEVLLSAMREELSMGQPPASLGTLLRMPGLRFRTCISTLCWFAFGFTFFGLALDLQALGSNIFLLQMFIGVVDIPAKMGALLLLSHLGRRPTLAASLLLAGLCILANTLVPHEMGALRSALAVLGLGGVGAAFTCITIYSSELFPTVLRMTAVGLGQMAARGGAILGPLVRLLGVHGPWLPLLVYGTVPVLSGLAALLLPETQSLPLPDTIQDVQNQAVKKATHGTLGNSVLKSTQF

Broadly, the IC50 is the concentration at which inhibition is half-maximal. A low value points to greater potency. At URAT1, `N#Cc1ccc(-c2cnccc2SC2(C(=O)O)CCC2)c2cccn12` [Example 8, 1-((3-(5-cyanoindolizin-8-yl)pyridin-4-yl)thio)cyclobutane-1-carboxylic acid] returned an IC50 of 55 nM. Also, in assay [1], the “serum uric acid levels, time after dosing 0.5 h” value was determined as 449.8 ± 39.8 µmol/L; the “serum uric acid levels, time after dosing 1 h” value stood at 483.9 ± 62.9 µmol/L; the “serum uric acid levels, time after dosing 2 h” value turned out to be 451.2 ± 58.9 µmol/L; the “serum uric acid levels, time after dosing 3 h” value worked out at 393.9 ± 68.6 µmol/L. The “serum uric acid levels, time after dosing 4 h” value in assay [1] worked out at 358.3 ± 68.2 µmol/L.

With `CC(C)(Sc1ccncc1-c1ccc(C#N)n2cccc12)C(=O)O` [Example 9, 2-((3-(5-cyanoindolizin-8-yl)pyridin-4-yl)thio)-2-methylpropanoic acid], in assay [1], the “serum uric acid levels, time after dosing 0.5 h” value came out at 432.1 ± 43.2 µmol/L; the “serum uric acid levels, time after dosing 1 h” value came out at 450.8 ± 40.9 µmol/L; the “serum uric acid levels, time after dosing 2 h” value worked out at 385.5 ± 52.2 µmol/L; the “serum uric acid levels, time after dosing 3 h” value stood at 347.1 ± 46.8 µmol/L. Further, the “serum uric acid levels, time after dosing 4 h” value in assay [1] was found to be 336.3 ± 59.1 µmol/L.

`N#Cc1ccc(-c2cnccc2SC2(C(=O)O)CCC2)c2ccc(Cl)n12` [Example 10, 1-((3-(3-chloro-5-cyanoindolizin-8-yl)pyridin-4-yl)thio)cyclobutane-1-carboxylic acid] returned an IC50 against URAT1 of 424 nM.

In turn, `N#Cc1ccc(-c2cnccc2SC2(C(=O)O)CCC2)c2cc(Cl)cn12` [Example 11, 1-((3-(2-chloro-5-cyanoindolizin-8-yl)pyridin-4-yl)thio)cyclobutane-1-carboxylic acid] displayed an IC50 at URAT1 of 828 nM.

For `N#Cc1ccc(-c2cnccc2SC2(C(=O)O)CCC2)c2cc(F)cn12` [Example 12, 1-((3-(5-cyano-2-fluoroindolizin-8-yl)pyridin-4-yl)thio)cyclobutane-1-carboxylic acid], inhibition against URAT1 was half-maximal at 271 nM (IC50). This IC50 lies about 3.1-fold lower than the previous one.

As to `N#Cc1ccc(-c2cnccc2SC2(C(=O)O)CCC2)n2cc(Cl)cc12` [Example 13, 1-((3-(2-Chloro-8-cyanoindolizin-5-yl)pyridin-4-yl)thio)cyclobutane-1-carboxylic acid], on URAT1, the midpoint of inhibition, the IC50, lay at 26 nM. Further, in assay [1], the “serum uric acid levels, time after dosing 0.5 h” value came out at 487.2 ± 46.9 µmol/L; the “serum uric acid levels, time after dosing 1 h” value stood at 523.6 ± 50.4 µmol/L; the “serum uric acid levels, time after dosing 2 h” value stood at 422.0 ± 54.1 µmol/L; the “serum uric acid levels, time after dosing 3 h” value is 341.4 ± 69.4 µmol/L. Moreover, the “serum uric acid levels, time after dosing 4 h” value in assay [1] came to 295.5 ± 47.2 µmol/L.

For `CC(C)(Sc1ccncc1-c1ccc(C#N)c2cc(Cl)cn12)C(=O)O` [Example 14, 2-((3-(2-chloro-8-cyanoindolizin-5-yl)pyridin-4-yl)thio)-2-methylpropanoic acid], half-maximal inhibition against URAT1 (IC50) was put at 30 nM. Besides, in assay [1], the “serum uric acid levels, time after dosing 0.5 h” value stood at 476.3 ± 53.4 µmol/L; the “serum uric acid levels, time after dosing 1 h” value was 489.5 ± 83.1 µmol/L; the “serum uric acid levels, time after dosing 2 h” value was found to be 385.8 ± 68.2 µmol/L; the “serum uric acid levels, time after dosing 3 h” value is 337.2 ± 72.4 µmol/L. The “serum uric acid levels, time after dosing 4 h” value in assay [1] came to 285.4 ± 47.7 µmol/L.

`N#Cc1ccc(-c2cnccc2SC2(C(=O)O)CCC2)n2cc(Br)cc12` [Example 15, 1-((3-(2-bromo-8-cyanoindolizin-5-yl)pyridin-4-yl)thio)cyclobutane-1-carboxylic acid] had an IC50 against URAT1 of 29 nM. For the same molecule, in assay [1], the “serum uric acid levels, time after dosing 0.5 h” value was determined as 476.8 ± 61.7 µmol/L; the “serum uric acid levels, time after dosing 1 h” value was 496.3 ± 74.8 µmol/L; the “serum uric acid levels, time after dosing 2 h” value came out at 401.7 ± 52.9 µmol/L; the “serum uric acid levels, time after dosing 3 h” value turned out to be 331.3 ± 70.5 µmol/L. Further, in assay [1], the “serum uric acid levels, time after dosing 4 h” value was 278.0 ± 46.0 µmol/L.

On to `CC(C)(Sc1ccncc1-c1ccc(C#N)c2cc(Br)cn12)C(=O)O` [Example 16, 2-((3-(2-bromo-8-cyanoindolizin-5-yl)pyridin-4-yl)thio)-2-methylpropanoic acid], for which, in assay [1], the “serum uric acid levels, time after dosing 0.5 h” value was found to be 460.6 ± 46.5 µmol/L; the “serum uric acid levels, time after dosing 1 h” value was determined as 491.9 ± 77.4 µmol/L; the “serum uric acid levels, time after dosing 2 h” value stood at 380.6 ± 47.4 µmol/L; the “serum uric acid levels, time after dosing 3 h” value was found to be 293.9 ± 42.1 µmol/L. Besides, in assay [1], the “serum uric acid levels, time after dosing 4 h” value amounted to 264.7 ± 38.8 µmol/L.

For the molecule `N#Cc1cc2c(C#N)ccc(-c3cnccc3SC3(C(=O)O)CCC3)n2c1` [Example 17, 1-((3-(2,8-dicyanoindolizin-5-yl)pyridin-4-yl)thio)cyclobutane-1-carboxylic acid], at URAT1, the IC50 was 45 nM. For the same molecule, in assay [1], the “serum uric acid levels, time after dosing 0.5 h” value came out at 454.4 ± 39.8 µmol/L; the “serum uric acid levels, time after dosing 1 h” value amounted to 458.1 ± 66.7 µmol/L; the “serum uric acid levels, time after dosing 2 h” value came to 432.2 ± 67.6 µmol/L; the “serum uric acid levels, time after dosing 3 h” value was found to be 403.0 ± 70.0 µmol/L. In addition, the “serum uric acid levels, time after dosing 4 h” value in assay [1] came to 340.1 ± 56.0 µmol/L.

Turning to `CS(=O)(=O)c1cc2c(C#N)ccc(-c3cnccc3SC3(C(=O)O)CCC3)n2c1` [Example 19, 1-((3-(8-cyano-2-(methylsulfonyl)indolizin-5-yl)pyridin-4-yl)thio)cyclobutane-1-carboxylic acid], the 50% inhibitory concentration (IC50) at URAT1 was 332 nM.

With `N#Cc1ccc(-c2cnccc2SC2(C(=O)O)CCC2)n2c(F)ccc12` [Example 20, 1-((3-(8-Cyano-3-fluoroindolizin-5-yl)pyridin-4-yl)thio)cyclobutane-1-carboxylic acid], inhibition on URAT1 was half-maximal at 34 nM (IC50).

Molecule `N#Cc1ccc(-c2cnccc2SC2(C(=O)O)CCC2)n2ccc(F)c12` [Example 21, 1-((3-(8-cyano-1-fluoroindolizin-5-yl)pyridin-4-yl)thio)cyclobutane-1-carboxylic acid] returned an IC50 against URAT1 of 85 nM.

For `N#Cc1ccc(-c2cnccc2SC2(C(=O)O)CCC2)n2c(Cl)ccc12` [Example 23, 1-((3-(3-chloro-8-cyanoindolizin-5-yl)pyridin-4-yl)thio)cyclobutane-1-carboxylic acid], the IC50 on URAT1 was found to be 89 nM.

The molecule `COCC(C)(Sc1ccncc1-c1ccc(C#N)c2cccn12)C(=O)O` (stereo not drawn) [Example 31, 2-((3-(8-cyanoindolizin-5-yl)pyridin-4-yl)thio)-3-methoxy-2-methylpropanoic acid] displayed an IC50 at URAT1 of 504 nM.
